Test results as given in patent US20240408081A1, “NOVEL SYNERGISTIC COMBINATIONS AND METHODS OF USE THEREOF FOR TREATING CANCERS” (UNIVERSITE DE BORDEAUX, priority 2021, published 2024).

Columns and labels:
[1] = system: Huh6 cells; test: Huh6 tumor xenografts in NSG mice; assay type: in vivo, NOD/LtSz-scid IL2R gamma null (NSG) mice; details: intraperitoneal; GSK-126 50 mg/kg, ATR 20 mg/kg 3-times a week; cisplatin 1 mg/kg twice a week
Description: NOD/LtSz-scid IL2R gamma null (NSG) mice were bred in standard conditions compliant with regulatory bodies (French government). Sterilized food and water were accessible ad libitum. One million of Huh6 cells in 50% of Matrigel were subcutaneously injected in a total volume of 100 μl in the right flank of 8- to 9-week-old female mice (26-32 g; APAFIS #32917-2021121316283534 v2, Agreement #B33063916, Ministère de l'Enseignement Supérieur, de la Recherche et de l'Innovation).
Tumor growth was monitored by caliper measurement until tumors reached an average volume of 250 mm3 (at day 12, see arrow). […] The vehicle (PBS with 5% DMSO) was injected 3-times a week. Tumor growth was monitored during 16 additional days until tumors control reached a size of 2000 mm3. Thus, all mice were euthanized. Blood was collected from all euthanatized mice and circulating ASAT, ALAT, creatinine, and urea were measured to evaluate the toxicity of the different treatments on the liver and kidneys.

[2] = system: H3K27me3 trimethylation; test: Western blot of H3K27me3 in DMG cells; assay type: cell-based, human
Description: Histone extraction was performed according to manufacturer's instructions (Histone Extraction Kit-ab113476, Abcam, Paris, France).
Cell lysates were prepared by scraping cells using RIPA buffer (Sigma Aldrich) plus proteinase inhibitors (Sigma Aldrich) and centrifuged at 13000 g for 15 min at 4° C. Protein concentrations were measured using Pierce™ BCATM Protein Assays (ThermoFisher) and equal amounts of cell extracts were loaded for western blot analysis in 4-15% precasted polyacrylamide gel (Bio-Rad). Proteins were blotted on a nitrocellulose membrane (Transblot® Turbo midi-size, Bio Rad), blocked with the Odyssey blocking buffer (LI-COR Biosciences, ScienceTec, Les Ulis, France) or with BSA diluted in Tris-buffered saline with 0.1% Tween 20 (TBST) and probed with primary antibodies overnight at 4° C. […] Quantification was performed using ImageJ (National Institutes of Health, Bethesda, Maryland, USA).

[3] = system: Huh6 and HepG2 hepatoblastoma cells; test: Growth and viability of hepatoblastoma cells (Huh6 and HepG2), 2D and 3D spheroid; assay type: cell-based, human
Description: (§1) For 2D culture, a total of 2,000 cells/well for Huh6 and 3,000 cells/well for HepG2 were seeded in 96-well microtiter plates. Cell growth was measured at 24 h, 48h, 72h or 96h after genetic manipulation and at 48h or 72h after drug treatment using the in vitro MTS assay Kit or Sulforhodamine B (SRB, Absorbance at 565 nm) assay (Sigma) following manufacturer's instructions. For 3D culture, spheroids were formed as described above and microplates were incubated in an IncuCyte® S3 live cell analysis system and scanned every 8 hours. For genetic manipulation, the lentiviral transductions or the gene depletions were done before the plating. For drug treatments, depending on the experiment and the drug, spheroids were treated at day 4 or 5 for 48h or 72h. Cell viability assay in spheroids was done using 1 μM calcein AM (BioLegend) and 2 μM ethidium homodimer 1 (Sigma) for 30 minutes at 37° C. Spheroids were imaged using an IncuCyte® S3 live cell analysis system. For all cell viability assays, drugs were used at half maximal inhibitory concentration (IC50).

[4] = system: xenopus embryos; test: Toxicological assay in Xenopus embryos; assay type: in vivo; details: treated from gastrula stage
From the text: Embryos were left in solution until untreated control embryos reached stage 41.

[5] = system: NEM157i and SU-DIPG-IVi DMG cells; test: Apoptosis assay (Annexin V-PE / 7-AAD flow cytometry) in DMG cells; assay type: cell-based, human; details: 5 days of treatment
From the text: After exposure to drugs at indicated concentrations and times, cells were labeled with Annexin V-PE (BD Biosciences, Le Pont de Claix, France) and 7-AminoActinomycin D (7-AAD) (BD Bioscience) and analyzed using Flow Cytometry as described.

[6] = system: HepG2 cells; test: Cell viability assay (CellTiter 96 AQueous One / MTS) in HepG2; assay type: cell-based, human
Description: as §1

[7] = system: DMG cell lines including primary BXdmg1 cells; test: DMG spheroid formation assay; assay type: cell-based, human; details: 24 hours; GSK-126 20 μM for NEM157i and 15 μM for the others
Description: For spheroid formation assays, 10^4 cells were used per well in a 96-well plate. Volume of methylcellulose/medium/cells and inhibitors (10, 15 or 20 μM) mixture per well was 100 μL with a final concentration of methylcellulose at 0.5%. After rapid and gentle homogenization, the mixture was placed on a round-bottom cell culture microplate (U-shaped) treated to limit cell adhesion. After, spheroids were incubated in an incubator at 37° C. and 5% CO2 for 24 hours. Photos and films of spheroids were taken by an InCellis cell imager (Bertin instruments, Montigny-le-bretonneux, France).

[8] = system: patients with relapsed/refractory solid tumors and hematologic malignancies; details: cited from earlier work
[9] = system: SU-DIPG-IVi-Luc cells implanted in the brainstem; test: Orthotopic SU-DIPG-IVi-Luc brainstem glioma model in NSG mice; assay type: in vivo, NOD/LtSz-scid IL2R gamma (NSG) mice
Description: For the mouse model, the immortalized SU-DIPG-IV line was used. SU-DIPG-IVi was transduced by a luciferase vector (Luc) with a MOI of 10. Two days after birth, 10^5 SU-DIPG-IVi-Luc cells in 2 μl were injected directly into the brainstem through the neck to a depth of 3 mm using a 2 μl NeuroSyringe (Hamilton Neuros, Dutscher, Bruxelles, Belgium) under anesthesia with 2% isoflurane and 50% oxygen enrichment. […] Tumor growth was evaluated non-invasively with anesthetized mice on a Biospace imager (Biospace Lab, Nesles la Vallée, France) 1-2 days after each treatment.
Prior to treatments, mice were micro-tattooed (Aramis kit, BiosebLab, France). Animals were weighed and then receive an i.p. injection in the lower right quadrant following IACUC recommendations. A 1 ml tuberculin syringe and a 26-gauge needle were used with an injection volume of 200 μl for a 30 g mouse (3 mg/ml), adjusted to actual weight each week. Treatment was done 3 times a week, starting at day 8. Tumor growth was evaluated non-invasively on a Biospace imager (Biospace Lab, Nesles la Vallée, France). The entire procedure was carried out on a heating mat at 37° C. The animals were shaved and anesthetized in sterile condition (under PSM-2) in boxes dedicated to imaging. […]

Structure (SMILES): CC[C@H](C)n1cc(C)c2c(C(=O)NCc3c(C)cc(C)[nH]c3=O)cc(-c3ccc(N4CCNCC4)nc3)cc21 [GSK-126, 1-[(2S)-butan-2-yl]-N-[(4,6-dimethyl-2-oxo-1H-pyridin-3-yl)methyl]-3-methyl-6-[6-(1-piperazinyl)-3-pyridinyl]-4-indolecarboxamide]
- development of hepatoblastoma in mice (tumor volume) [1]: no effect
- H3K27me3 trimethylation ([2]; BXdmg1 cells, histone-purified protein extracts): reduced H3K27me3 trimethylation in a dose-dependent manner
- H3K27me3 trimethylation ([2]; NEM157i and SU-DIPG-IVi DMG cells): efficiently inhibited
- sensitivity of Huh6 and HepG2 cells in presence of Simvastatin or Atorvastatin ([3]; 72 h, 4 μM Simvastatin or 8 μM Atorvastatin): significantly increased (at least twice)
- IC50 ([3]; Homo sapiens, hepatoblastoma cells, 48 h): 6 to 8 µM
- toxic dose in xenopus embryos [4]: 1 mM
- tumor cell apoptosis [5]: increase in tumor cell apoptosis
- IC25 dose [6]: 4 µM
- IC50 ([6]; Homo sapiens): 8 µM
- spheroid formation [7]: spheroid formation was affected
- clinical activity ([8]; at the MTD): inadequate clinical activity
- half-life ([8]; human, in vivo): relatively short
- maximum tolerated dose (MTD) ([8]; twice weekly intravenous, 28 days (3 weeks on/1 week off)): 2,400 mg
- tumor growth (bioluminescence) ([9]; GSK-126 6 mg/kg, Atorvastatin 10 mg/kg, after four treatments): No significant differences
- tumor growth (bioluminescence) ([9]; i.p. dose of 10 mg/kg, 3-times a week): significant growth reduction
